Our source for the IC50 values is PubChem BioAssay AID1159558 (GlaxoSmithKline (GSK), 2015).

The source made the active and inactive calls.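 How the source made its calls: active means IC50 against T. cruzi CYP51 below a set limit; inactive means the rest.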

The IC50 is the concentration that inhibits the measured activity by half.

This experiment deals with Sterol 14-alpha demethylase (Trypanosoma cruzi (strain CL Brener)) (UniProt Q7Z1V1). The experiment can be described thus: T. cruzi sterol 14-alpha demethylase inhibition – biochemical, recombinant enzyme, mechanism study for T. cruzi antiparasitic project, dose response (AID 1159558).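 Further: enzyme in bacterial membranes with Anopheles gambiae CYP reductase and cytochrome b5 partners.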 The settings on record: recombinant T. cruzi CYP51, BOMCC fluorescence.
Sequence of Sterol 14-alpha demethylase (Trypanosoma cruzi (strain CL Brener)) (Q7Z1V1 whole entry, looked up): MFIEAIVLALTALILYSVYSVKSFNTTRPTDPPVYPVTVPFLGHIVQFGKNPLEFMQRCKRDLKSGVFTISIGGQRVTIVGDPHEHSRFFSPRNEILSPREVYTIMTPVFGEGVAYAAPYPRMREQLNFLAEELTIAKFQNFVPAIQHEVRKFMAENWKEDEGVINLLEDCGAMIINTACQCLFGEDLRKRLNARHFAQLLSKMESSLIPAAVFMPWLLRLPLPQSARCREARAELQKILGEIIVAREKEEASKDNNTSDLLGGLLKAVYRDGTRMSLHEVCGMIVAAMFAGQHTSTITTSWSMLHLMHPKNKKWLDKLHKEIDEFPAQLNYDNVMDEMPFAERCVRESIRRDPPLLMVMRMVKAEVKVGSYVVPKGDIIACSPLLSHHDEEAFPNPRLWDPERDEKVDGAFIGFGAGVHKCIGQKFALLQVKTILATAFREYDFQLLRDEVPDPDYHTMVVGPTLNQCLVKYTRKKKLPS
On to `Clc1ccc(C(CC2CCCCO2)Cn2cncn2)c(Cl)c1` (configuration not stated), for which the IC50 was 0.25 µM. Regarding `COCCn1c(-c2ccc3c(c2)OCO3)cnc1NCc1ccccc1OC`, the half-inhibitory concentration (IC50) was 5 µM. The same measure for `COc1cccc(NS(=O)(=O)c2ccc3[nH]cc(C(=O)NCCC(C)C)c(=O)c3c2)c1`: 6.3 µM; for `O=C1NCc2cccc(Nc3nc(NC4CCC(O)CC4)ncc3Br)c21` (configuration not stated): > 100 µM (inactive).

Take `Cc1ccccc1CNC(=O)CN(Cc1ccccn1)Cc1ccccn1`: the concentration for half-maximal inhibition (IC50) is 100 µM. As for `CN(C)CCN(C)Cc1ccc(Cl)cc1NS(=O)(=O)c1ccc(Cl)c(Cl)c1`, the IC50 was 32 µM. The same measure for `COc1ccc(Nc2nc(-c3ccccn3)cs2)c(OC)c1`: 20 µM.

As to `c1ccc(-c2nc(NCc3ccco3)c3ccccc3n2)nc1`, the IC50 is > 100 µM (inactive).

On to `O=C1CN(C(=O)c2cccc(Nc3ncc(-c4ccc5c(c4)OCO5)cn3)c2)CCN1`, for which the IC50 is 25 µM. `CCOc1ccc(N(C)S(=O)(=O)c2ccc3[nH]cc(C(=O)NC4CCCC4)c(=O)c3c2)cc1`: the IC50 is 6.3 µM. As for `CS(=O)(=O)c1cccc(CNC(=O)c2cncc(N3CCN(c4ccc(F)cc4)CC3)c2)c1`, the 50% inhibitory concentration (IC50) is 13 µM. In the case of `O=c1cc(CSc2ccc(Cl)cc2)nc(-c2ccccn2)[nH]1`, the IC50 is 63 µM. The same measure for `Cc1nn(-c2nc3ccccc3s2)c2c1C(c1ccc(OCC(N)=O)cc1)SCC(=O)N2` (configuration not stated): > 100 µM (inactive). For `Cc1ccc(NC(=O)c2ccnc(N3CCCC3)c2)cc1-c1ccsc1C(N)=O`, the IC50 is 1.3 µM. In the case of `CC1CCCN(S(=O)(=O)c2ccc(C(=O)Nc3nc(-c4ccccn4)cs3)cc2)C1` (configuration not stated), the half-inhibitory concentration (IC50) was 2.5 µM. Regarding `N#Cc1cccc(Cc2cc(Nc3cc(C4CC4)[nH]n3)nc(N3CC[C@H]3C(N)=O)n2)c1`, the half-inhibitory concentration (IC50) is 50 µM. The same measure for `Fc1ccc(Nc2nc(-c3ccccn3)cs2)cc1`: 16 µM.

As for `COc1ccc(OC)c(NC(=O)c2ccc([N+](=O)[O-])o2)c1`, the 50% inhibitory concentration (IC50) was 10 µM. The same measure for `CCNc1cc(-c2ccccn2)nc(Nc2ccc(OC)cc2)n1`: 40 µM; for `Cc1[nH]nc(Nc2ccnc3[nH]ccc23)c1C`: 79 µM; for `Cn1nc(-c2ccc(NC(=O)Cc3ccccc3Cl)cc2)c2c(N)ncnc21`: 63 µM. `Cn1cncc1CN1CCC2(CC1)COC(Cc1ccccc1)C2` (configuration not stated): the IC50 was 1 µM.

In the case of `O=C(NCCc1csc(-c2ccc(F)cc2)n1)c1cccs1`, the IC50 was 25 µM. In the case of `CC(C)c1cc(Nc2cc(Cc3ccccc3)nc(NC3CCC(O)CC3)n2)n[nH]1` (configuration not stated), the IC50 was 20 µM. As for `COc1ncc(-c2ccc3ncnc(N4CCOCC4)c3c2)cc1NS(C)(=O)=O`, the half-inhibitory concentration (IC50) was 40 µM. For the molecule `Cc1nn(-c2ccccc2)nc1CNC(=O)CN(Cc1ccccn1)Cc1ccccn1`, the 50% inhibitory concentration (IC50) is 25 µM. Under `CN(C)S(=O)(=O)c1cccc(C(=O)Nc2nc(-c3ccccn3)cs2)c1` stands 32 µM; under `NC(=O)c1ccsc1NC(=O)c1ccc([N+](=O)[O-])s1`, > 100 µM (inactive). As for `CN(C)Cc1ccc(-c2ccc(S(=O)(=O)NCC3CCCO3)c(F)c2)cc1` (configuration not stated), the IC50 was 40 µM. `Cn1c(CN2CCN(c3ncc(C(F)(F)F)cc3Cl)CC2)nc2ccncc21`: the 50% inhibitory concentration (IC50) was 0.079 µM. Regarding `O=C(N1CCc2ccccc2CC1)C1(C(=O)N2CCC(n3c(=O)[nH]c4ncccc43)CC2)CC1`, the concentration for half-maximal inhibition (IC50) was 0.32 µM. In the case of `COc1cccc(-c2cc(C(F)(F)F)nc(-n3ccc([N+](=O)[O-])n3)n2)c1`, the IC50 is > 100 µM (inactive). Regarding `CN(C)S(=O)(=O)c1cccc(CSc2nnc(-c3ccc4c(c3)OCO4)o2)c1`, the IC50 was 13 µM. `O=C(NNC(=O)c1ccccn1)c1ccc(-c2ccccc2)cc1`: the IC50 is 32 µM. In the case of `CCCn1c(NC(=O)Cc2ccc(Cl)cc2)nc2ccccc21`, the IC50 was > 100 µM (inactive).

In the case of `COc1ccc2nc(N(Cc3cccnc3)C(=O)C3CCC3)sc2c1`, the IC50 was 0.063 µM. For `Cc1cc(Nc2ccc(C#N)c(Cl)c2C)n[nH]1`, the concentration for half-maximal inhibition (IC50) was 40 µM. As for `c1ccc(-c2nc(NC3CCCCC3)cc(C3CC3)n2)nc1`, the IC50 is > 100 µM (inactive). Under `CC(Cn1ccnc1)NC(=O)C=Cc1ccc(Cl)cc1` (configuration not stated) stands 0.16 µM.

On to `CC(=O)NC1(c2ccccc2)CCN(CC(=O)Nc2ccccc2-c2ccccc2)CC1`, for which the IC50 is 50 µM. The same measure for `Cc1sc(C)c(C(F)(F)F)c1CNCCCNc1cc(=O)c2ccccc2[nH]1`: 20 µM; for `O=C(NCCc1csc(-c2ccc(F)cc2)n1)c1ccco1`: > 100 µM (inactive); for `COc1ccc(C(=O)[C@H]2C[C@@H]2CN(Cc2ccccn2)Cc2ccccn2)cc1`: 40 µM. Regarding `COc1ccc(C2C3CCCCC3(O)CCN2CC(=O)Nc2ccc(Cl)cc2Cl)cc1` (configuration not stated), the IC50 was 10 µM.

Consider `CCOc1ccc(Nc2ccc(S(=O)(=O)N3CCN(C)CC3)cc2[N+](=O)[O-])cc1OCC`, for which the IC50 is 32 µM.

For the molecule `Cc1ccc(NC(=O)c2ccc(Cl)c(NC(=O)c3ccc([N+](=O)[O-])cc3)c2)cc1`, the IC50 was > 100 µM (inactive). Consider `O=C(NCCc1ccn(-c2ccccc2)n1)C1CCCCC1`, for which the IC50 was 100 µM.

As to `CCCCn1c(=O)c2c(N)onc2n(CCCC)c1=O`, the half-inhibitory concentration (IC50) is 79 µM. Regarding `CC(C)CC(=O)Nc1cc(C2CC2)nn1-c1nc2c(c(=O)[nH]1)CCCC2`, the IC50 was > 100 µM (inactive). Under `O=S(=O)(NCC(c1cccnc1)N1CCN(c2ccccc2F)CC1)c1ccc(F)cc1` (configuration not stated) stands 0.079 µM; under `Cn1nc(C(=O)N2CCc3ccccc32)c2c1CCS(=O)(=O)C2`, > 100 µM (inactive). For `CCCC(=O)N(Cc1ccccn1)c1nc2ccccc2s1`, the IC50 was 0.05 µM.

Turning to `COc1ccc(C2CC(c3ccccc3Cl)=NN2C(=O)CNC(=O)C2CCCC2)cc1` (configuration not stated), the concentration for half-maximal inhibition (IC50) was 63 µM. The same measure for `Cc1cc(C)nc(N2CCC(N(Cc3cccnc3)C(=O)c3cccc(C#N)c3)CC2)n1`: 0.13 µM. Consider `COc1ccc(-c2nc3ncccc3o2)cc1NC(=O)c1cccs1`, for which the IC50 is > 100 µM (inactive).

In the case of `COc1ccc(Oc2ccc(C(C)N(C)c3ncc4c(N)nc(N)nc4n3)cc2)cc1` (configuration not stated), the IC50 was 1.6 µM. `CNS(=O)(=O)c1ccccc1Nc1nc(Nc2cc(C)nn2C)ncc1Cl`: the half-inhibitory concentration (IC50) is 25 µM.

Turning to `COc1cccc(Nc2cc(C)nc(-c3ccccn3)n2)c1`, the IC50 was > 100 µM (inactive). For `O=C(CSc1nnc(-c2ccc3c(c2)OCO3)o1)N(Cc1ccco1)CC(F)(F)F`, the IC50 is 25 µM. Take `COc1cc(C2SCC(=O)Nc3c2c(C)nn3-c2nc3ccccc3s2)cc(OC)c1O` (configuration not stated): the IC50 was 5 µM.

Regarding `CC(=O)Nc1ccc(-c2cnc(N)c(-c3nc4ccc(F)cc4[nH]3)c2)cc1`, the 50% inhibitory concentration (IC50) was 63 µM. Turning to `CCN(CC)c1nc(N(C)C)nc2c1CN(Cc1ccccc1)CC2`, the IC50 is 10 µM. With `O=C(Cc1ccccc1)Nc1[nH]nc2sc(C(=O)NC3CCCC3)cc12`, the half-inhibitory concentration (IC50) was 32 µM. In the case of `Cc1ccc(S(C)(=O)=O)cc1Nc1nccc(-c2sc(N)nc2-c2ccccc2)n1`, the IC50 is > 100 µM (inactive). Under `CN(C)Cc1ccc(N2CCC(NS(=O)(=O)c3ccc(Cl)cc3)CC2)cc1` stands > 100 µM (inactive); under `CC(=O)Nc1ccc(-c2ccnc(Nc3cccc(C#N)c3)n2)cc1`, 25 µM. Regarding `O=C1c2cnc(N3CCCC3)nc2CN1c1ccc2c(c1)OCO2`, the IC50 was > 100 µM (inactive). Under `O=C(Nc1nc(-c2ccccn2)cs1)C1CCc2ccccc2C1` (configuration not stated) stands 25 µM; under `O=C(Cn1cnc([N+](=O)[O-])n1)Nc1ccc(Cl)cc1C(=O)c1ccccc1`, 10 µM. Take `NC(=O)c1cc(NC(=O)c2ccccc2COc2ccccc2)ccc1Cl`: the IC50 is 79 µM. Turning to `Cc1cc(C)n(-c2nc(NC(C)(C)C)nc(N3CCOCC3)n2)n1`, the IC50 is > 100 µM (inactive).

In the case of `CCn1c(NC(=O)Cc2ccc(F)cc2)nc2ccccc21`, the IC50 was 25 µM. The same measure for `CC(CNS(=O)(=O)c1ccc(OC(F)F)cc1)c1ccc(NC(=O)c2ccncc2)cc1` (configuration not stated): 0.05 µM.

For `CCC(=O)N1N=C(c2ccc3c(c2)CCCC3)Sc2c1ncn2C(=O)CC`, the IC50 was > 100 µM (inactive). The same measure for `Cc1ccc(Nc2nc(-c3ccccn3)cc(N3CCCC(O)C3)n2)cc1` (configuration not stated): 25 µM. The same measure for `O=C(Cc1ccc2c(c1)CCC2)Nc1n[nH]c(-c2ccccn2)n1`: 2.5 µM.

As to `CC(C)Oc1cccc(N2CCC(C(=O)N3CCCN(C(C)C)CC3)CC2)c1`, the IC50 is > 100 µM (inactive). For `Cc1ccc(CNC2CCN(C[C@@H]3Cn4c(=O)ccc5ccc(=O)n3c54)CC2)cc1F`, the IC50 is > 100 µM (inactive). Under `O=C(Cn1cnc2cc([N+](=O)[O-])ccc2c1=O)NCCc1ccc(Cl)cc1Cl` stands > 100 µM (inactive). For `O=C(NCCc1cccnc1)c1ccc(-c2ccccc2F)o1`, the IC50 is 0.063 µM. As to `COc1ccc(S(=O)(=O)Nc2ccccc2OC)cc1NC(=O)CCCc1c[nH]c2ccccc12`, the IC50 was > 100 µM (inactive).

As for `CCC(c1ccc(F)cc1)n1cncc1-c1cnn(C)c1` (configuration not stated), the half-inhibitory concentration (IC50) was 0.079 µM. `CS(=O)(=O)c1ccc(Nc2nccc(Nc3n[nH]c4ccc(F)cc34)n2)c(F)c1`: the IC50 is 40 µM. Consider `O=c1oc2ccccc2n1C1CCN(Cc2ccccc2-c2cccnc2)CC1`, for which the IC50 was 0.1 µM. Regarding `O=C(NCc1ccncc1)c1ccccc1N1CCCN(C(=O)Cc2ccc(F)c(F)c2)CC1`, the half-maximal inhibitory concentration (IC50) was 0.079 µM.

With `CN(Cc1nc2ccc(C(=O)NCC3CCCCC3)cc2[nH]1)C1CCCc2cccnc21` (configuration not stated), the 50% inhibitory concentration (IC50) is 40 µM. Take `Cc1ccc(NC(=O)C(C)n2nc([N+](=O)[O-])c(Br)c2C)cc1Cl` (configuration not stated): the IC50 was > 100 µM (inactive).

Turning to `CCCCNc1nccc(-c2c(-c3ccc(F)cc3)nn3c(N4CCOCC4)cccc23)n1`, the IC50 is > 100 µM (inactive).

As for `CCCN1CCN(Cc2ccc(S(=O)(=O)Nc3cccc(C)c3)cc2)CC1`, the IC50 was > 100 µM (inactive). For `CC(=Cc1ccccc1)CN1CCC(=O)N(Cc2cccnc2)CC1`, the IC50 was 0.1 µM. As to `O=c1[nH]c(NCCCNCc2cc(Br)cc(Br)c2)nc2ccsc12`, the concentration for half-maximal inhibition (IC50) was 32 µM. Consider `Cc1cc(=O)n2nc(Oc3ccc(C#N)cc3Cl)sc2n1`, for which the IC50 is > 100 µM (inactive).
